Patent US8809386B2, “Use of dynamin ring stabilizers” (Children's Medical Research Institute, priority 2009, dated 2014)

Experiments:
[1] = molecular target: native brain dynamin I (Ovis aries, UniProt A0ACI6NZN1); experiment: PS liposome-stimulated (helical) dynamin I GTPase activity, inhibition; assay type: biochemical, sheep; conditions: 5 μM, increasing dynamin concentrations, FIG. 1
Protocol: Each of the dyngo compounds was synthesized by a simple one-step condensation reaction coupling 3-hydroxy-2-naphthoic acid hydrazide with a variety of hydroxyl substituted benzaldehydes affording a focussed library as illustrated by Scheme 1 below (e.g., by mixing the reagents in ethanol (e.g., 10 ml) in a round bottomed flask, refluxing the mixture for 2 hours, allowing it to cool and removing the solvent in vacuo prior to recrystallizing the product from ethanol although other synthesis methods available).
Among the various classes of dynamin inhibitors are subsets of dynamin ring stabilizers.

[2] = test system: endocytosis; experiment: Endocytosis in cells (data not shown); assay type: cell-based
Protocol: To determine if the in vitro action of the dynamin ring stabilizers also occurs in cells, the effect of Bis-T-23 on the actin cytoskeleton in cultured mouse podocytes was tested (FIG. 19). […] Thus, the observed increase in stress fibers is unlikely due to inhibition of endocytosis.

Sequence of native brain dynamin I (A0ACI6NZN1 entry or part of it): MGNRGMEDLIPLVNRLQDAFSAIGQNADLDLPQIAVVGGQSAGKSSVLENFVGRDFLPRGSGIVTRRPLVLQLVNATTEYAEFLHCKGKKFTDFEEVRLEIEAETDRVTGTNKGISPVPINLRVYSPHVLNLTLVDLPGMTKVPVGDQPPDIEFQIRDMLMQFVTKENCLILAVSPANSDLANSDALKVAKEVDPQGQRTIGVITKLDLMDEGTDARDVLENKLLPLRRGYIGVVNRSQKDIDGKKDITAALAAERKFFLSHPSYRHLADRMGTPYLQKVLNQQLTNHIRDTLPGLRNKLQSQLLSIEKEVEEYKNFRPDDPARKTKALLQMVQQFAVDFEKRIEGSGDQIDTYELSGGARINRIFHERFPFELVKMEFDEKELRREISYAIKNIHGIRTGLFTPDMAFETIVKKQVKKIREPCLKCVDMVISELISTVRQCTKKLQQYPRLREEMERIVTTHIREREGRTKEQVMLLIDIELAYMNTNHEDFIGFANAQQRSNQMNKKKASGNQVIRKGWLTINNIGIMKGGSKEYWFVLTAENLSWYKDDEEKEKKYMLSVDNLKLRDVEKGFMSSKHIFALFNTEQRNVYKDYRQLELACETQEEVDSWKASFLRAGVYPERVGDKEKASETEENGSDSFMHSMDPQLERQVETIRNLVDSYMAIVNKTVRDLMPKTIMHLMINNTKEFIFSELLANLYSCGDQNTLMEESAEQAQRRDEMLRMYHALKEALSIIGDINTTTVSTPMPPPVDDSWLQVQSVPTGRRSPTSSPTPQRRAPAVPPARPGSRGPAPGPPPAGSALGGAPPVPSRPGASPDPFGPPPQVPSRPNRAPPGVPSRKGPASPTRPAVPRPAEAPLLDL

## N#CC(=Cc1cc(O)c(O)c(O)c1)C(=O)NCCCNC(=O)C(C#N)=Cc1cc(O)c(O)c(O)c1 [Bis-T-23, 2-cyano-N-{3-[2-cyano-3-(3,4,5-trihydroxyphenyl)-acryloylamino]-propyl}-3-(3,4,5-trihydroxyphenyl)-acrylamide]
[1]
  inhibition of liposome-stimulated dynamin GTPase activity: potently inhibits dynamin at all points
[2]
  endocytosis: inhibits endocytosis
